The numbers were not newly measured in patent publication US6310247A, “7-aryl-6(Z)-heptatrienoic acid retinamides” (Hoffmann-LA Roche Inc., priority 1999, dated 2001), which cites them from elsewhere.

The structures appear in SMILES notation. “Also recorded” adds a separate entry of the source.

The subject of data set [1] is ER+ and ER- breast carcinoma cells. The conditions noted are these: cited from earlier work.
Another data set deals with tumors. The note with it: cited from earlier work.
For data set [2] the following is noted: cited from earlier work.
The subject of the next data set is tumor cells. The note with it: cited from earlier work.

As to `CC1=C(/C=C/C(C)=C/C=C/C(C)=C/C(=O)Nc2ccc(O)cc2)C(C)(C)CCC1` [4-HPR, all trans 4-hydroxyphenyl retinamide], the “Growth inhibition and apoptosis in breast carcinoma cells (in words)” value in data set [1] is “capable of inhibiting cell growth and inducing apoptosis; also recorded: appears to induce apoptosis and cause inhibition of cell growth”. Moreover, in the data set with tumors (against a number of malignancies), the “Chemopreventative activity (in words)” value is recorded as “potent chemopreventative agent”. In addition, in the data set with tumors (in vivo), the “Tumor regression (in words)” value is recorded as “capable of tumor regression in vivo”. Moreover, the “Effect on tumor formation and tumor growth (in words)” value in the data set with tumors (via apoptosis) is “inhibit tumor formation and tumor growth via apoptosis”. Besides, in data set [2], the “Major toxicity seen in the clinic” value is given as “night vision impairment”. For the same compound, the “Induction of apoptosis in retinoid-resistant cells (in words)” value with tumor cells (cells resistant to retinoids that activate RARs efficiently) was “effective in inducing apoptosis”. In the data set with tumor cells (including lung carcinoma cell and hematopoetic malignancies), the “Growth inhibition and apoptosis in other tumor cell types (in words)” value was “inhibit cell growth and to induce apoptosis”.
